Test results from patent US8927500B2, “Peptidomimetic macrocycles” (Aileron Therapeutics, Inc., priority 2012, dated 2015).
Where a SMILES comes first, the peptide text is derived from it. Bridges are numbered along the chain shown (N, C = ends). [ ]: non-standard residue; d: D form. 2Nal = N[C@@H](Cc1ccc2ccccc2c1)C(=O)O; R8 = C=CCCCCCC[C@@](C)(N)C(=O)O; Cba = N[C@@H](CC1CCC1)C(=O)O; S5 = C=CCCC[C@](C)(N)C(=O)O

Experiments:
MDM2 = MDM2 (Homo sapiens, UniProt Q00987); test: Competitive fluorescence polarization assay for MDM2; type: binding; details: competitive FP assay, MDM2; for IC50: IC50 (MDM2); for Ki: Ki (MDM2)
Caspase 3 = Caspase 3 detection assay in SJSA1 cells; type: cell-based; details: 48 h, Caspase 3 activation over DMSO-treated cells; for caspase 0.3 uM: 0.3 uM peptide; for caspase 1 uM: 1 uM peptide; for caspase 3 uM: 3 uM peptide; for caspase 10 uM: 10 uM peptide; for caspase 30 uM: 30 uM peptide
SJSA-1 cells = test: Cell lysis by peptidomimetic macrocycles (LDH release); type: cell-based; details: 1 h at 37C
Description: On the day of the assay, media was exchanged with RPMI 1% FBS media, 90 uL of media per well.
10 mM stock solutions of the peptidomimetic macrocycles were prepared in 100% DMSO.
The negative control (non-lytic) sample was 0.5% DMSO alone and positive control (lytic) samples include 10 uM Melittin and 1% Triton X-100.
Cell plates were incubated for 1 hour at 37C. After the 1 hour incubation, the morphology of the cells is examined by microscope and then the plates were centrifuged at 1200 rpm for 5 minutes at room temperature. 40 uL of supernatant for each peptidomimetic macrocycle and control sample is transferred to clear assay plates.

MDMX = biological target: T1, MDMX (Homo sapiens, UniProt O15151); test: Competitive fluorescence polarization assay for MDMX; type: binding; details: competitive FP assay; for IC50: read-out: IC50 (MDMX); for Ki: read-out: Ki (MDMX)
T1 sequence (O15151 1-125): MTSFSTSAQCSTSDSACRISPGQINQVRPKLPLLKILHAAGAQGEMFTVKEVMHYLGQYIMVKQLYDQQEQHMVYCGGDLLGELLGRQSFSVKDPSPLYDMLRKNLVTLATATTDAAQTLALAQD

Sequence of MDM2 (Q00987 1-125): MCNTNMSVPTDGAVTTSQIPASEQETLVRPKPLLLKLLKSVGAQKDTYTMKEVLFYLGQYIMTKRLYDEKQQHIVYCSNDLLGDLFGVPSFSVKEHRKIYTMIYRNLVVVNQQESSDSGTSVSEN

CC(=O)N[C@@H](CC(C)C)C(=O)N[C@H](C(=O)N[C@@H](Cc1ccccc1)C(=O)N[C@]1(C)CCCCCCC=CCCC[C@@](C)(C(=O)N[C@@H](C)C(=O)N[C@@H](C)C(=O)N[C@@H](C)C(=O)N[C@@H](C)C(=O)N[C@@H](C)C(=O)N[C@@H](C)C(=O)N[C@H](C)C(N)=O)NC(=O)[C@H](CC(C)C)NC(=O)[C@H](CCC(N)=O)NC(=O)[C@H](C)NC(=O)[C@H](Cc2c[nH]c3ccccc23)NC(=O)[C@H](Cc2ccc(O)cc2)NC(=O)[C@H](C)NC1=O)[C@@H](C)O (single isomer, unassigned) [compound 317]
IC50 (MDM2): 10 to 100 nM
Ki (MDM2): 10 to 100 nM
caspase 0.3 uM (Caspase 3): 3
caspase 1 uM (Caspase 3): 4
caspase 3 uM (Caspase 3): 9
caspase 10 uM (Caspase 3): 26
caspase 30 uM (Caspase 3): 35
6.25 uM % Lysed cells (1 h LDH) (SJSA-1 cells): 0%
25 uM % Lysed cells (1 h LDH) (SJSA-1 cells): 0%
50 uM % Lysed cells (1 h LDH) (SJSA-1 cells): 0%

CC(=O)N[C@@H](CC(C)C)C(=O)N[C@H](C(=O)N[C@@H](Cc1ccccc1)C(=O)N[C@]1(C)CCCCCCC=CCCC[C@@](C)(C(=O)N[C@@H](CO)C(=O)N[C@@H](C)C(=O)N[C@@H](C)C(=O)N[C@H](C)C(N)=O)NC(=O)[C@H](CC2CCC2)NC(=O)[C@H](CCC(N)=O)NC(=O)[C@H](C)NC(=O)[C@H](Cc2c[nH]c3ccccc23)NC(=O)[C@H](Cc2ccc(O)cc2)NC(=O)[C@H](CCC(=O)O)NC1=O)[C@@H](C)O (single isomer, unassigned) [compound 353]
IC50 (MDMX): 10 to 100 nM
Ki (MDMX): < 10 nM
caspase 0.3 uM (Caspase 3): 1
caspase 1 uM (Caspase 3): 2
caspase 3 uM (Caspase 3): 5
caspase 10 uM (Caspase 3): 7
caspase 30 uM (Caspase 3): 30
6.25 uM % Lysed cells (1 h LDH) (SJSA-1 cells): 0%
25 uM % Lysed cells (1 h LDH) (SJSA-1 cells): 0%
50 uM % Lysed cells (1 h LDH) (SJSA-1 cells): 0%

CC(=O)N[C@@H](CC(C)C)C(=O)N[C@H](C(=O)N[C@@H](Cc1ccccc1)C(=O)N[C@]1(C)CCCCCCC=CCCC[C@@](C)(C(=O)N[C@@H](CO)C(=O)N[C@@H](C)C(=O)N[C@@H](C)C(N)=O)NC(=O)[C@H](CC2CCCCC2)NC(=O)[C@H](CCC(N)=O)NC(=O)[C@H](C)NC(=O)[C@H](Cc2c[nH]c3ccccc23)NC(=O)[C@H](Cc2ccc(O)cc2)NC(=O)[C@H](CCC(=O)O)NC1=O)[C@@H](C)O (single isomer, unassigned) [compound 148]
IC50 (MDMX): 100 to 1000 nM
Ki (MDMX): 10 to 100 nM
caspase 0.3 uM (Caspase 3): 1
caspase 3 uM (Caspase 3): 11
caspase 10 uM (Caspase 3): 23
caspase 30 uM (Caspase 3): 31
6.25 uM % Lysed cells (1 h LDH) (SJSA-1 cells): 0%
25 uM % Lysed cells (1 h LDH) (SJSA-1 cells): −1%
50 uM % Lysed cells (1 h LDH) (SJSA-1 cells): 0%

CC(=O)N[C@@H](CC(C)C)C(=O)N[C@H](C(=O)N[C@@H](Cc1ccccc1)C(=O)N[C@]1(C)CCCCCCC=CCCC[C@@](C)(C(=O)N[C@@H](C)C(=O)N[C@@H](C)C(=O)N[C@@H](Cc2ccccc2)C(=O)N[C@H](C)C(N)=O)NC(=O)[C@H](CC(C)C)NC(=O)[C@H](CCC(N)=O)NC(=O)[C@H](C)NC(=O)[C@H](Cc2c[nH]c3ccccc23)NC(=O)[C@H](Cc2ccc(O)cc2)NC(=O)[C@H](CCC(=O)O)NC1=O)[C@@H](C)O (single isomer, unassigned) [compound 219]
caspase 0.3 uM (Caspase 3): 1
caspase 3 uM (Caspase 3): 5
caspase 10 uM (Caspase 3): 17
caspase 30 uM (Caspase 3): 34
6.25 uM % Lysed cells (1 h LDH) (SJSA-1 cells): 0%
25 uM % Lysed cells (1 h LDH) (SJSA-1 cells): −1%
50 uM % Lysed cells (1 h LDH) (SJSA-1 cells): 2%

CC(=O)N[C@@H](CC(C)C)C(=O)N[C@H](C(=O)N[C@@H](Cc1ccc(F)c(F)c1)C(=O)N[C@]1(C)CCCCCC/C=C/CCC[C@@](C)(C(=O)N[C@@H](CO)C(=O)N[C@@H](C)C(=O)N[C@@H](C)C(N)=O)NC(=O)[C@H](CCC(C)C)NC(=O)[C@H](CCC(N)=O)NC(=O)[C@H](C)NC(=O)[C@H](Cc2c[nH]c3ccccc23)NC(=O)[C@H](Cc2ccc(O)cc2)NC(=O)[C@H](CCC(=O)O)NC1=O)[C@@H](C)O [compound 160]
caspase 0.3 uM (Caspase 3): 2
caspase 3 uM (Caspase 3): 10
caspase 10 uM (Caspase 3): 16
caspase 30 uM (Caspase 3): 31
6.25 uM % Lysed cells (1 h LDH) (SJSA-1 cells): −1%
25 uM % Lysed cells (1 h LDH) (SJSA-1 cells): −1%
50 uM % Lysed cells (1 h LDH) (SJSA-1 cells): 1%

CSCC[C@H](NC(=O)[C@H](C)NC(=O)[C@H](C)NC(=O)[C@]1(C)CCCC=CCCCCCC[C@@](C)(NC(=O)[C@H](Cc2ccccc2)NC(=O)[C@@H](NC(=O)[C@H](CC(C)C)NC(C)=O)[C@@H](C)O)C(=O)N[C@@H](C)C(=O)N[C@@H](Cc2ccc(O)cc2)C(=O)N[C@@H](Cc2c[nH]c3ccccc23)C(=O)N[C@@H](C)C(=O)N[C@@H](C)C(=O)N[C@@H](CC(C)C)C(=O)N1)C(=O)N[C@H](C)C(N)=O [compound 72] (Ac-LTF[R8]AYWAAL[S5]AAM[dA]-NH2; staple 4-11)
caspase 0.3 uM (Caspase 3): 1
caspase 3 uM (Caspase 3): 1
caspase 10 uM (Caspase 3): 4
caspase 30 uM (Caspase 3): 10
6.25 uM % Lysed cells (1 h LDH) (SJSA-1 cells): 2%
25 uM % Lysed cells (1 h LDH) (SJSA-1 cells): 0%
50 uM % Lysed cells (1 h LDH) (SJSA-1 cells): 3%

CC[C@H](C)[C@H](NC(=O)[C@H](C)NC(=O)[C@H](C)NC(=O)[C@]1(C)CCCC=CCCCCCC[C@@](C)(NC(=O)[C@H](Cc2ccccc2)NC(=O)[C@@H](NC(=O)[C@H](CC(C)C)NC(C)=O)[C@@H](C)O)C(=O)N[C@@H](CCC(=O)O)C(=O)N[C@@H](Cc2c[nH]cn2)C(=O)N[C@@H](Cc2c[nH]c3ccccc23)C(=O)N[C@@H](C)C(=O)N[C@@H](CCC(N)=O)C(=O)N[C@@H](CC(C)C)C(=O)N1)C(=O)N[C@H](C)C(N)=O (single isomer, unassigned) [compound 223]
caspase 0.3 uM (Caspase 3): 1
caspase 3 uM (Caspase 3): 1
caspase 10 uM (Caspase 3): 5
caspase 30 uM (Caspase 3): 18
6.25 uM % Lysed cells (1 h LDH) (SJSA-1 cells): −2%
25 uM % Lysed cells (1 h LDH) (SJSA-1 cells): −4%
50 uM % Lysed cells (1 h LDH) (SJSA-1 cells): −1%

CC(=O)N[C@@H](CC(C)C)C(=O)N[C@H](C(=O)N[C@@H](Cc1ccccc1)C(=O)N[C@]1(C)CCCCCCC=CCCC[C@@](C)(C(=O)N[C@@H](CO)C(=O)N[C@@H](C)C(=O)N[C@@H](C)C(N)=O)NC(=O)[C@H](CC2CCC2)NC(=O)[C@H](CCC(N)=O)NC(=O)[C@H](C)NC(=O)[C@H](Cc2ccc3ccccc3c2)NC(=O)[C@H](Cc2ccc(O)cc2)NC(=O)[C@H](CCC(=O)O)NC1=O)[C@@H](C)O [compound 254] (Ac-LTF[R8]EY[2Nal]AQ[Cba][S5]SAA-NH2; staple 4-11)
IC50 (MDMX): 100 to 1000 nM
Ki (MDMX): 10 to 100 nM
caspase 0.3 uM (Caspase 3): 1
caspase 1 uM (Caspase 3): 3
caspase 3 uM (Caspase 3): 7
caspase 10 uM (Caspase 3): 14
caspase 30 uM (Caspase 3): 22
6.25 uM % Lysed cells (1 h LDH) (SJSA-1 cells): 11%
25 uM % Lysed cells (1 h LDH) (SJSA-1 cells): 60%
50 uM % Lysed cells (1 h LDH) (SJSA-1 cells): 75%

CC(=O)N[C@@H](CC(C)C)C(=O)N[C@H](C(=O)N[C@@H](Cc1ccccc1)C(=O)N[C@]1(C)CCCCCCC=CCCC[C@@](C)(C(=O)N[C@@H](CO)C(=O)N[C@@H](C)C(=O)N[C@@H](C)C(N)=O)NC(=O)[C@H](CC2CCC2)NC(=O)[C@H](CCC(N)=O)NC(=O)[C@H](C)NC(=O)[C@H](Cc2c[nH]c3ccccc23)NC(=O)[C@H](Cc2ccc(O)cc2)NC(=O)[C@H](CCC(=O)O)NC1=O)[C@@H](C)O (single isomer, unassigned) [compound 153]
caspase 0.3 uM (Caspase 3): 2
caspase 3 uM (Caspase 3): 10
caspase 10 uM (Caspase 3): 15
caspase 30 uM (Caspase 3): 20
6.25 uM % Lysed cells (1 h LDH) (SJSA-1 cells): 4%
25 uM % Lysed cells (1 h LDH) (SJSA-1 cells): 2%
50 uM % Lysed cells (1 h LDH) (SJSA-1 cells): 3%

CC(=O)N[C@@H](CC(C)C)C(=O)N[C@H](C(=O)N[C@@H](Cc1ccccc1)C(=O)N[C@]1(C)CCCCCCC=CCCC[C@@](C)(C(=O)N[C@@H](C)C(=O)N[C@@H](C)C(=O)N[C@@H](C)C(=O)N[C@@H](C)C(=O)N[C@@H](C)C(=O)N[C@@H](C)C(=O)N[C@H](C)C(N)=O)NC(=O)[C@H](CC(C)C)NC(=O)[C@H](CCC(N)=O)NC(=O)[C@H](C)NC(=O)[C@H](Cc2c[nH]c3ccccc23)NC(=O)[C@H](Cc2ccc(O)cc2)NC(=O)[C@H](C)NC1=O)[C@@H](C)O (single isomer, unassigned) [compound 316]
IC50 (MDM2): < 10 nM
Ki (MDM2): < 10 nM
caspase 0.3 uM (Caspase 3): 6.5
caspase 1 uM (Caspase 3): 10.5
caspase 3 uM (Caspase 3): 21
caspase 10 uM (Caspase 3): 32
caspase 30 uM (Caspase 3): 32.5
6.25 uM % Lysed cells (1 h LDH) (SJSA-1 cells): 0%
25 uM % Lysed cells (1 h LDH) (SJSA-1 cells): 0%
50 uM % Lysed cells (1 h LDH) (SJSA-1 cells): 1%
